Data set [1] is described as follows: logP (neutral / acidic, pH 2.3).
The next data set relates to Sphaerotheca fuliginea. As to the kind of experiment: Sphaerotheca test (cucumber) / protective. It is filed as in vivo. To be noted: Podosphaera fuliginea, 168 h, read-out: efficacy. The procedure:
Sphaerotheca Test (Cucumber)/Protective
Solvent: 49 parts by weight of N,N-dimethylformamide
Emulsifier: 1 part by weight of alkylaryl polyglycol ether
To produce a suitable preparation of active compound, 1 part by weight of active compound is mixed with the stated amounts of solvent and emulsifier, and the concentrate is diluted with water to the desired concentration.
To test for protective activity, young cucumber plants are sprayed with the active compound preparation at the stated application rate. 1 day after the treatment, the plants are inoculated with a spore suspension of Sphaerotheca fuliginea. The plants are then placed in a greenhouse at 70% relative atmospheric humidity and a temperature of 23° C.
Evaluation is carried out 7 days after the inoculation. 0% means an efficacy which corresponds to that of the control, whereas an efficacy of 100% means that no infection is observed.

Where [2] appears, read: cucumber, protective, 500 ppm active compound, evaluation 7 days after inoculation.

The record followed here is patent US8785692B2, “Substituted phenylamidines and the use thereof as fungicides” (priority 2007, dated 2014).

Like-named read-outs stand apart in the source and are kept apart here.

As to `CCN(C)C=Nc1cc(C)c(/C(C)=N/OC(C)(C)C)cc1C` [Compound 9, N-ethyl-N′-{4-[(1E)-N-tert-butoxyethanimidoyl]-2,5-dimethylphenyl}-N-methylimidoformamide], the logP (usually the decadic logarithm of the partition coefficient of the neutral form, usually between octanol and water) in data set [1] turned out to be 5.17; in data set [1] (pH 2.3), 2.19.

For `CCN(C)C=Nc1cc(C)c(/C=N/OCc2ccc3c(c2)OCOC3)cc1C` [Compound 4, N′-(4-{(E)-[(4H-1,3-benzodioxin-7-ylmethoxy)imino]methyl}-2,5-dimethylphenyl)-N-ethyl-N-methylimidoformamide], the logP in data set [1] stood at 4.71; in data set [1] (pH 2.3), 2.02.

Consider `CCN(C)C=Nc1cc(C)c(/C(C)=N/OCc2c(Cl)cccc2Cl)cc1C` [Compound 29, N′-(4-{(1E)-N-[(2,6-dichlorobenzyl)oxy]ethanimidoyl}-2,5-dimethylphenyl)-N-ethyl-N-methylimidoformamide], for which the pest or weed control at 500 ppm in the data set on Sphaerotheca fuliginea (setting [2]) was at least 70%. For the same compound, the logP in data set [1] is 5.51; in data set [1] (pH 2.3) it was 3.75.

Consider `CCN(C)C=Nc1cc(C)c(/C(C)=N/OC(C2CC2)C2CC2)cc1C` [Compound 20, N′-{4-[(1E)-N-(dicyclopropylmethoxy)ethanimidoyl]-2,5-dimethylphenyl}-N-ethyl-N-methylimidoformamide], for which the pest or weed control at 500 ppm in the data set on Sphaerotheca fuliginea (setting [2]) is at least 70%. The logP in data set [1] is 5.33; in data set [1] (pH 2.3), 2.38.

Regarding `CCN(C)C=Nc1cc(C)c(/C(C)=N/OCC=C(C)C)cc1C` [Compound 33, N′-(2,5-dimethyl-4-{(1E)-N-[(3-methylbut-2-en-1-yl)oxy]ethanimidoyl}phenyl)-N-ethyl-N-methylimidoformamide], in the data set with Sphaerotheca fuliginea, the pest or weed control at 500 ppm is at least 70%. Moreover, the figures for the logP in data set [1] and in data set [1] (pH 2.3) were 4.86 and 2.24, respectively.

In the case of `CCO/N=C(\C)c1cc(C)c(N=CN(C)CC)cc1C` [Compound 23, N-ethyl-N′-{4-[(1E)—N-ethoxyethanimidoyl]-2,5-dimethylphenyl}-N-methylimidoformamide], the logP in data set [1] turned out to be 3.86; in data set [1] (pH 2.3) it was 1.6.

As for `CCN(C)C=Nc1cc(C)c(/C(C)=N/OCc2ccc(C(C)(C)C)cc2)cc1C` [Compound 12, N′-(4-{(1E)-N-[(4-tert-butylbenzyl)oxy]ethanimidoyl}-2,5-dimethylphenyl)-N-ethyl-N-methylimidoformamide], the pest or weed control at 500 ppm in the data set with Sphaerotheca fuliginea (setting [2]) was at least 70%. In addition, the logP in data set [1] worked out at 6.26; in data set [1] (pH 2.3), 3.05.

In the case of `CCN(C)C=Nc1cc(C)c(/C(C)=N/OCCOc2cccc(C(F)(F)F)c2)cc1C` [Compound 34, N′-{2,5-dimethyl-4-[(1E)-N-{2-[3-(trifluoromethyl)phenoxy]ethoxy}ethan-imidoyl]phenyl}-N-ethyl-N-methylimidoformamide], the pest or weed control at 500 ppm in the data set with Sphaerotheca fuliginea (setting [2]) is at least 70%. In addition, the logP came out at 5.28 in data set [1] and 2.59 in data set [1] (pH 2.3).

Consider `CCN(C)C=Nc1cc(C)c(/C(C)=N/OCOCCOC)cc1C` [Compound 18, N′-{2,5-dimethyl-4-[(1E)-1-methyl-3,5,8-trioxa-2-azanon-1-en-1-yl]phenyl}-N-ethyl-N-methylimidoformamide], for which the logP in data set [1] is 3.05; in data set [1] (pH 2.3), 1.43.

`CCN(C)C=Nc1cc(C)c(/C(C)=N/OCc2cccc(Oc3ccccc3)c2)cc1C` [Compound 22, N′-(2,5-dimethyl-4-{(1E)-N-[(3-phenoxybenzyl)oxy]ethanimidoyl}phenyl)-N-ethyl-N-methylimidoformamide]: in the data set on Sphaerotheca fuliginea (setting [2]), the pest or weed control at 500 ppm is at least 70%. Further, the logP is 5.77 in data set [1] and 2.69 in data set [1] (pH 2.3).

Regarding `CCN(C)C=Nc1cc(C)c(/C(C)=N/OCc2c(C)noc2C)cc1C` [Compound 36, N′-(4-{(1E)-N-[(3,5-dimethylisoxazol-4-yl)methoxy]ethanimidoyl}-2,5-dimethylphenyl)-N-ethyl-N-methylimidoformamide], the pest or weed control at 500 ppm in the data set on Sphaerotheca fuliginea (setting [2]) was at least 70%. The logP in data set [1] is 3.63; in data set [1] (pH 2.3), 1.68.

As for `C=CCO/N=C(\C)c1cc(C)c(N=CN(C)CC)cc1C` [Compound 35, N′-{4-[(1E)-N-(allyloxy)ethanimidoyl]-2,5-dimethylphenyl}-N-ethyl-N-methylimidoformamide], the log partition coefficient (logP) in data set [1] is 4.02; in data set [1] (pH 2.3), 1.72.

For `CCN(C)C=Nc1cc(C)c(/C(C)=N/OCC(C)C)cc1C` [Compound 13, N-ethyl-N′-{4-[(1E)-N-isobutoxyethanimidoyl]-2,5-dimethylphenyl}-N-methylimidoformamide], the figures for the logP in data set [1] and in data set [1] (pH 2.3) were 4.98 and 2.22, respectively.

For the compound `CCN(C)C=Nc1cc(C)c(/C(C)=N/OCc2ccccc2)cc1C` [Compound 31, N′-(4-{(1E)-N—[benzyloxy]-ethanimidoyl}-2,5-dimethylphenyl)-N-ethyl-N-methylimidoformamide], the pest or weed control at 500 ppm with Sphaerotheca fuliginea (setting [2]) was at least 70%. The logP is 4.65 in data set [1] and 2.07 in data set [1] (pH 2.3).

Take `CCN(C)C=Nc1cc(C)c(/C=N/OC(C)C)cc1C` [Compound 40, N-ethyl-N′-{4-[(E)-(isopropoxyimino)methyl]-2,5-dimethylphenyl}-N-methylimidoformamide]: the pest or weed control at 500 ppm in the data set on Sphaerotheca fuliginea (setting [2]) is at least 70%. Moreover, the logP in data set [1] turned out to be 4.41; in data set [1] (pH 2.3) it was 1.76.

For `CCN(C)C=Nc1cc(C)c(/C(C)=N/OC/C=C/c2ccccc2)cc1C` [Compound 19, N′-{2,5-dimethyl-4-[(1E)-N-{[(2E)-3-phenylprop-2-en-1-yl]oxy}ethanimidoyl]phenyl}-N-ethyl-N-methylimidoformamide], the logP in data set [1] was 5.2; in data set [1] (pH 2.3) it was 2.32.

Regarding `CCN(C)C=Nc1cc(C)c(/C(C)=N/OCC(F)(F)F)cc1C` [Compound 17, N′-{2,5-dimethyl-4-[(1E)-N-(2,2,2-trifluoroethoxy)ethanimidoyl]phenyl}-N-ethyl-N-methylimidoformamide], in the data set with Sphaerotheca fuliginea (setting [2]), the pest or weed control at 500 ppm was at least 70%. Further, the figures for the log partition coefficient (logP) in data set [1] and in data set [1] (pH 2.3) were 4.24 and 1.88, respectively.

Regarding `CCN(C)C=Nc1cc(C)c(/C=N/OCC2CC2)cc1C` [Compound 47, N′-(4-{(E)-[(cyclopropylmethoxy)imino]methyl}-2,5-dimethylphenyl)-N-ethyl-N-methylimidoformamide], the logP turned out to be 3.95 in data set [1] and 1.67 in data set [1] (pH 2.3).

Consider `CCN(C)C=Nc1cc(C)c(/C(C)=N/OC)cc1C` [Compound 24, N-ethyl-N′-{4-[(1E)-N-methoxyethanimidoyl]-2,5-dimethylphenyl}-N-methylimidoformamide], for which the logP in data set [1] is 3.33; in data set [1] (pH 2.3), 1.38.

Turning to `CCN(C)C=Nc1cc(C)c(/C(C)=N/OC(C)c2ccc(Cl)cc2)cc1C` (stereo not shown) [Compound 38, N′-(4-{(1E)-N-[1-(4-chlorophenyl)ethoxy]ethanimidoyl}-2,5-dimethylphenyl)-N-ethyl-N-methylimidoformamide], the logP in data set [1] amounted to 5.67; in data set [1] (pH 2.3), 2.46.

`CCN(C)C=Nc1cc(C)c(/C(C)=N/Nc2ccccc2F)cc1C` [Compound 45, N-ethyl-N′-(4-{(1E)-1-[2-(2-fluorophenyl)hydrazinylidene]ethyl}-2,5-dimethylphenyl)-N-methylimidoformamide] registered a logP in data set [1] (pH 2.3) of 1.91.

In data set [1] (pH 2.3), `Cc1cc(C=O)c(C)cc1N` [4-Amino-2,5-dimethylbenzaldehyde] displayed a logP of 1.34.

In turn, `Cc1cc(C=NOCc2ccccc2)c(C)cc1N` [4-(Benzyloxyiminomethyl)-2,5-dimethylaniline] returned a logP in data set [1] (pH 2.3) of 4.22.

Regarding `CCN(C)C=Nc1cc(C)c(/C=N/OC(C)(C)C)cc1C` [Compound 39, N′-{4-[(E)-(tert-butoxyimino)methyl]-2,5-dimethylphenyl}-N-ethyl-N-methylimidoformamide], the pest or weed control at 500 ppm in the data set with Sphaerotheca fuliginea is at least 70%. The logP in data set [1] amounted to 4.98; in data set [1] (pH 2.3) it was 2.11.

Regarding `CCN(C)C=Nc1cc(C)c(/C(C)=N/OCc2ccc(Cl)nc2)cc1C` [Compound 32, N′-(4-{(1E)-N-[(6-chloropyridin-3-yl)methoxy]ethanimidoyl}-2,5-dimethylphenyl)-N-ethyl-N-methylimidoformamide], the pest or weed control at 500 ppm in the data set on Sphaerotheca fuliginea (setting [2]) is at least 70%. Besides, the logP in data set [1] worked out at 3.95; in data set [1] (pH 2.3), 1.67.

For the compound `Cc1cc(C=NOC(C)C)c(C)cc1N` [4-(Isopropoxyiminomethyl)-2,5-dimethylaniline], the logP in data set [1] (pH 2.3) stood at 2.77.

For the compound “N-(2,5-dimethyl-4-{(E)-[1-phenylethoxy]ethanimidoyl}phenyl)-N-ethyl-N-methylimidoformamide [Compound 27]”, the logP acidic in data set [1] (acidic) is on record as 2.39. In data set [1] (neutral), this compound displayed a logP neutral of 5.09.

Take `CCN(C)C=Nc1cc(C)c(/C(C)=N/OC(C)C)cc1C` [Compound 10, N-ethyl-N′-{4-[(1E)-N-isopropoxyethanimidoyl]-2,5-dimethylphenyl}-N-methylimidoformamide]: the logP came out at 4.42 in data set [1] and 1.92 in data set [1] (pH 2.3).

Take `CCN(C)C=Nc1cc(C)c(/C(C)=N/CCCC(C)(C)C)cc1C` [Compound 46, N′-{4-[(1E)-N-(4,4-dimethylpentyl)ethanimidoyl]-2,5-dimethylphenyl}-N-ethyl-N-methylimido-formamide]: the logP in data set [1] amounted to 4.75; in data set [1] (pH 2.3), 1.79.

Regarding `CCN(C)C=Nc1cc(C)c(/C(C)=N/OCC[Si](C)(C)C)cc1C` [Compound 44, N′-(2,5-dimethyl-4-{(1E)-N-[2-(trimethylsilyl)ethoxy]ethanimidoyl}phenyl)-N-ethyl-N-methylimidoformamide], the logP in data set [1] was found to be 6.21; in data set [1] (pH 2.3), 2.76.

Consider `CCN(C)C=Nc1cc(C)c(/C=N/OCCC(C)(C)C)cc1C` [Compound 48, N′-(4-{(E)-[(3,3-dimethylbutoxy)imino]methyl}-2,5-dimethylphenyl)-N-ethyl-N-methylimidoformamide], for which the log partition coefficient (logP) in data set [1] was found to be 5.89; in data set [1] (pH 2.3) it was 2.3.
